Where a name gives a salt, the structure may show the parent alone.

A short description of series [1]: Polymorphic stability following grinding and tablet punching. Type of series: physicochemical.
Series [2] can be described thus: Compressibility for dosage form preparation (e.g. tablets). In kind it is physicochemical.

`C[C@H](CSC(=O)c1ccccc1)C(=O)N1C[C@@H](Sc2ccccc2)C[C@H]1C(=O)O` [(4S)-1-[(2S)-3-(benzoylthio)-2-methylpropionyl]-4-(phenylthio)-L-proline calcium salt]: in series [1], the “stability (changes in polymorphic form)” value is reported as “no changes in polymorphic form”. Besides, the compressibility entry in series [2] was “excellent compressibility”.

For the origin of these results see patent US8119662B2, “Crystalline compounds” (Generics [UK] Limited, priority 2005, dated 2012).
